In patent publication US12173018B2, “Penicillin-binding protein inhibitors” (priority 2018, dated 2024):
≈ marks a conversion by molar mass, not a printed value. Where a name gives a salt, the structure may show the parent alone. Read-outs that look alike come from different tables or passages of the source.

Experiments:
E. coli PBP1a = E. coli PBP1a (Escherichia coli (strain K12), UniProt P02918); experiment: Radioligand competition binding assay with 14C-labeled boronic acid probe, PBP1a
Text: To determine the ability of boronic acid-based test PBP inhibitors to bind Penicillin Binding Proteins (PBPs), a radio-labelled boronic acid PBP inhibitor
[drawing 751] was used in competition binding assays to determine boronic acid PBP inhibitor binding to PBP1a or PBP1b from Escherichia coli. PBP1a and PBP1b were purified as described previously (Bertsche, U.; et al., J. Biol. Chem. 2005, 280 (45), 38096-38101; Born, P.; et al., J. Biol. Chem. 2006. 281 (37), 26985-26993). To establish assay conditions for competition binding, an enzyme titration/saturation binding experiment was performed. Saturation binding was performed in a buffer comprised of 20 mM Tris (pH 7.5), 500 mM NaCl and 0.1% (v/v) TritonX-100, with PBP1a/PBP1b at a final concentration of 0.1 μM and Compound A at final concentrations ranging from 0-100 μM. Mixtures were incubated for 60 minutes, then applied to Zeba Spin Desalting columns or plates (ThermoFisher Scientific) and centrifuged at 1000-1500×g for 2 minutes. The flow through, containing PBP bound with Compound A, was recovered and 100 μL mixed with 5 mL of UltimaGold liquid scintillation cocktail (Perkin Elmer), and the radioactivity counted using a Beckman Coulter LS 6500 Multipurpose scintillation counter. PBP binding of Compound A approached saturation at 20 μM of ^14C-labeled probe. The competition binding assay was validated using the beta-lactam ampicillin, with Compound A at a final concentration of 20 μM, PBP1a/PBP1b at a final concentration of 0.1 μM. PBP1a/PBP1b was incubated with ampicillin in a 96-well microplate for 60 minutes, then Compound A was added and the mixtures incubated for an additional 60 minutes. The mixtures were then applied to Zeba Spin desalting plates and centrifuged at 1000×g for 2 minutes. The flow through was recovered and 100 μl mixed with 5 ml of UltimaGold liquid scintillation cocktail and the radioactivity counted. […] Binding assays with boronic acid PBP inhibitors were performed in an identical fashion. The potency of boronic acid PBP inhibitors was reported as the EC50 value.

[1] = tested on: E. coli DH5α empty pLBII vector control strain; experiment: microbe, parasite or virus in culture; type: cell-based, Escherichia coli; conditions: Escherichia coli, read-out: Microbiological Activity (MIC in mg/L), E. coli DH5α/pLBII
Outline: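 Broth microdilution in cation-supplemented Mueller-Hinton broth used a starting inoculum of 5×10^5 CFU/mL of E. coli DH5α carrying empty pLBII vector. Plates were incubated 16–20 h at 37 °C. MIC was read visually as the lowest concentration showing no growth.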

E. coli AG100 = experiment: Broth microdilution MIC, E. coli AG100 (wild-type parent); type: cell-based; conditions: Escherichia coli; wild-type parent E. coli AG100, broth microdilution; read-out: MIC E. coli AG100
Outline: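 Broth microdilution in cation-supplemented Mueller-Hinton broth, 2-fold serial compound dilutions, inoculum 5×10^5 CFU/mL from 3-5 h log culture.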

E. coli PBP1b = E. coli PBP1b (Escherichia coli (strain K12), UniProt P02919); experiment: Radioligand competition binding assay with 14C-labeled boronic acid probe, PBP1b
Sequence of E. coli PBP1b (P02919 whole entry): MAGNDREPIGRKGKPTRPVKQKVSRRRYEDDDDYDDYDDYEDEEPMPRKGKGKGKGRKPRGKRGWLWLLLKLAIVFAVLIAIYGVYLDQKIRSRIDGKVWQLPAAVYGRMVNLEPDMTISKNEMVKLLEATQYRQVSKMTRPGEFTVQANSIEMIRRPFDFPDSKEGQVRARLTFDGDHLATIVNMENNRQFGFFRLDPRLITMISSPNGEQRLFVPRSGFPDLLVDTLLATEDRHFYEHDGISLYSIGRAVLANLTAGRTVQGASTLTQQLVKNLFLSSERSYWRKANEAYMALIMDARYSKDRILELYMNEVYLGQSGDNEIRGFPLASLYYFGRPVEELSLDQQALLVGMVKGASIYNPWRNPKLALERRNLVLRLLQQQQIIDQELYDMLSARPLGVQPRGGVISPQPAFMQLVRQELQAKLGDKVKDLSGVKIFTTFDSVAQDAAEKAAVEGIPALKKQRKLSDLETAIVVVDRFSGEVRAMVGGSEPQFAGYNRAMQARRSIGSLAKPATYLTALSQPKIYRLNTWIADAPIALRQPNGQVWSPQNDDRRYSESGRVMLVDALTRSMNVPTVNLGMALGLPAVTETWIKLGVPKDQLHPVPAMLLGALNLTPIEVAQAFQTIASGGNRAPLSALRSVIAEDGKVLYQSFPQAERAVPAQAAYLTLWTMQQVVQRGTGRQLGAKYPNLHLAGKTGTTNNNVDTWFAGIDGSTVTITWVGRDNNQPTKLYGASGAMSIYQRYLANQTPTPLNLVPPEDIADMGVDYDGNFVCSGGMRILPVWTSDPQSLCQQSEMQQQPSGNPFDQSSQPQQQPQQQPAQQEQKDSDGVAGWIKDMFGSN

[2] = tested on: engineered strain of Escherichia coli harboring CTX-M15; experiment: microbe, parasite or virus in culture; type: cell-based; conditions: Escherichia coli, read-out: Microbiological Activity (MIC in mg/L), E. coli DH5α/pLBII-CTX-M15, engineered strain producing CTX-M15
E. coli PBP3 = E. coli PBP3 (Escherichia coli (strain K12), UniProt P0AD68); experiment: E. coli PBP3 Bocillin-FL fluorescence polarization competition binding assay
Sequence of E. coli PBP3 (P0AD68 whole entry): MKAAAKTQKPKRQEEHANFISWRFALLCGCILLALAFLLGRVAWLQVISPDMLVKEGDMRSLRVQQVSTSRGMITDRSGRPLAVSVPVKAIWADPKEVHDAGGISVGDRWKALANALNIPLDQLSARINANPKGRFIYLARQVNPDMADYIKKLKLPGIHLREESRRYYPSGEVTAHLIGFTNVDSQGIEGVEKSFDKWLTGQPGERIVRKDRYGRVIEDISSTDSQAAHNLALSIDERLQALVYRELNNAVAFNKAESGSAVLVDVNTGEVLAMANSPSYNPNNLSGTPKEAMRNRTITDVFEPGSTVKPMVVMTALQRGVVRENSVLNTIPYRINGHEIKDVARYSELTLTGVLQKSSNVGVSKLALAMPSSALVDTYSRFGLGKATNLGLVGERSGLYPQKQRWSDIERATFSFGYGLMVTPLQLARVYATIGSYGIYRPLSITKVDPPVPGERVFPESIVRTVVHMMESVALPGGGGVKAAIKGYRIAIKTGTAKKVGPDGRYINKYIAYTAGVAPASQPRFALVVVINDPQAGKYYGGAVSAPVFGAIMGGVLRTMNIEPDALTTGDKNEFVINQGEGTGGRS
Outline: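 This was a fluorescence polarization competition with fluorescent penicillin Bocillin-FL (0.1 μM final), read at 490/520 nm for 60 min immediately after its addition. The buffer was Hepes pH 8.0 with 300 mM NaCl and 5% glycerol, containing 1.5 μM PBP and test inhibitor up to 1000 μM. Potency is expressed as EC50 for reducing probe binding.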

E. coli ATCC 25922 = experiment: Broth microdilution MIC, E. coli ATCC 25922; type: cell-based; conditions: Escherichia coli, ATCC25922; E. coli ATCC 25922, broth microdilution; read-out: MIC E. coli 25922
Outline: (§1)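 CLSI broth microdilution in cation-supplemented Mueller-Hinton broth; 2-fold compound dilutions inoculated at 5×10^5 CFU/mL from a 3-5 h log-phase culture. Plates incubated 16-20 hours at 37° C; MIC read visually as lowest concentration with no growth.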

E. coli AG100A = experiment: microbe, parasite or virus in culture; type: cell-based; conditions: Escherichia coli, read-out: MIC E. coli AG100A
Outline: as §1

E. coli 901C = experiment: microbe, parasite or virus in culture; type: cell-based; conditions: Escherichia coli; hyper-permeable E. coli 901C, broth microdilution; read-out: MIC E. coli 901C
Outline: as §1

K. pneumoniae UMM = experiment: microbe, parasite or virus in culture; type: cell-based; conditions: Klebsiella pneumoniae; K. pneumoniae UMM producing SHV-5 and KPC-2; read-out: MIC K. pneumoniae UMM
Outline: as §1

K. pneumoniae 848844 = experiment: microbe, parasite or virus in culture; type: cell-based, Klebsiella pneumoniae; conditions: Klebsiella pneumoniae; K. pneumoniae 848844 producing SHV-11 and KPC-2; read-out: MIC K. pneumoniae 848844
Outline: as §1

E. coli D22 = experiment: microbe, parasite or virus in culture; type: cell-based; conditions: Escherichia coli; hyper-permeable E. coli D22, broth microdilution; read-out: MIC E. coli D22
Outline: as §1

K. pneumoniae SI-117 = experiment: microbe, parasite or virus in culture; type: cell-based; conditions: Klebsiella pneumoniae, SI117, read-out: MIC K. pneumoniae SI-117
Outline: as §1

[3] = fluorescence polarization competition binding with Bocillin-FL, read-out: E. coli K12 PBP3 Potency

Sequence of E. coli PBP1a (P02918 whole entry): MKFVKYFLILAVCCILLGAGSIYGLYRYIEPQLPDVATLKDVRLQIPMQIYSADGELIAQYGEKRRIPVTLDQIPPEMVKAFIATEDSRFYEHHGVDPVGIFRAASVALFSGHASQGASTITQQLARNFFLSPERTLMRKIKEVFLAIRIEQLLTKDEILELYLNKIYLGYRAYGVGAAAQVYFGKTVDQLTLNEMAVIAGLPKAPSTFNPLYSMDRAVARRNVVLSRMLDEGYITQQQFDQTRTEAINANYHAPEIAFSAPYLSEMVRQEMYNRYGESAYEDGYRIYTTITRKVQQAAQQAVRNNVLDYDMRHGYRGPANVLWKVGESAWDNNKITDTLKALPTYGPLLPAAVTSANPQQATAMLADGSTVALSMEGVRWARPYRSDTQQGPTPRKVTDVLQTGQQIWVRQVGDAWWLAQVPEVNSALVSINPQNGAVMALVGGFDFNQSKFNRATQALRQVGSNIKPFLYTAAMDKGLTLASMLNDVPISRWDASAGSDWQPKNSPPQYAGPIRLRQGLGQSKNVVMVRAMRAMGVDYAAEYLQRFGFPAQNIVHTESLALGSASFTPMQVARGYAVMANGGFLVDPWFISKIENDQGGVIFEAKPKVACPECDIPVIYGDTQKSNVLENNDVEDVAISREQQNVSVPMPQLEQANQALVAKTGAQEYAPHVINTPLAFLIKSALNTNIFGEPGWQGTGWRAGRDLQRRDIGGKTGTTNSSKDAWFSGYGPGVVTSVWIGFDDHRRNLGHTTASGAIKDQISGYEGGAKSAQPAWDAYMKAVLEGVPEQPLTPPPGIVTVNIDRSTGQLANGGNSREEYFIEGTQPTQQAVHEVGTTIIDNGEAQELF

SMILES	EC50 (E. coli PBP1a)	MIC [1]	MIC (E. coli AG100)	MIC [2]	EC50 (E. coli PBP3; [3])	MIC (E. coli ATCC 25922)	MIC (E. coli AG100A)	MIC (E. coli 901C)	MIC (K. pneumoniae UMM)	EC50 (E. coli PBP3)	also measured
CCN1CCN(C(=O)NC(C(=O)N[C@H]2Cc3cccc(C(=O)O)c3OB2O)c2cc(O)c(O)c(Cl)c2)C(=O)C1=O (stereo partly drawn) [Example 45, (3R)-3-(2-(3-chloro-4,5-dihydroxyphenyl)-2-(4-ethyl-2,3-dioxopiperazine-1-carboxamido)acetamido)-2-hydroxy-3,4-dihydro-2H-benzo[e][1,2]oxaborinine-8-carboxylic acid]	< 10 µM	8 to 16 mg/L (≈ 13.9 to 27.8 µM)	8 to 16 µg/mL	8 to 16 mg/L (≈ 13.9 to 27.8 µM)	< 30 µM	8 to 16 µg/mL	8 to 16 µg/mL	0.5 to 1 µg/mL	8 to 16 µg/mL	–	EC50 (E. coli PBP1b): < 10 µM
CCN1CCN(C(=O)NC(C(=O)N[C@H]2Cc3cccc(C(=O)O)c3OB2O)C(O)c2ccc(O)c(O)c2)C(=O)C1=O (stereo partly drawn) [Example 46, (3R)-3-(3-(3,4-dihydroxyphenyl)-2-(4-ethyl-2,3-dioxopiperazine-1-carboxamido)-3-hydroxypropanamido)-2-hydroxy-3,4-dihydro-2H-benzo[e][1,2]oxaborinine-8-carboxylic acid]	< 10 µM	–	–	–	–	–	–	–	–	30 to 500 µM	–
CC1(C)S[C@@H]2[C@H](NC(=O)[C@H](N)c3ccccc3)C(=O)N2[C@H]1C(=O)O [ampicillin, reference compound]	–	–	–	–	–	–	–	–	–	–	EC50 (E. coli PBP1a; assay validation, Compound A 20 μM, PBP1a/PBP1b 0.1 μM, read-out: EC50 (inhibition of binding of Compound A) PBP1a): < 0.5 µM; EC50 (E. coli PBP1b; assay validation, Compound A 20 μM, PBP1a/PBP1b 0.1 μM, read-out: EC50 (inhibition of binding of Compound A) PBP1b): < 0.5 µM; EC50 (E. coli PBP3; assay validation with beta-lactams, PBP 1.5 μM, Bocillin-FL 0.1 μM, read-out: EC50 for PBP3 (reduction of Bocillin-FL binding)): 1.4 µM
CCN1CCN(C(=O)NC(C(=O)N[C@H]2Cc3cccc(C(=O)O)c3OB2O)c2ccc(O)nc2F)C(=O)C1=O (stereo partly drawn) [Example 86, (3R)-3-(2-(4-ethyl-2,3-dioxopiperazine-1-carboxamido)-2-(2-fluoro-6-hydroxypyridin-3-yl)acetamido)-2-hydroxy-3,4-dihydro-2H-benzo[e][1,2]oxaborinine-8-carboxylic acid]	< 10 µM	–	–	128 to 256 mg/L (≈ 236 to 471 µM)	–	–	–	–	–	30 to 500 µM	–
CCN1CCN(C(=O)NC(C(=O)N[C@H]2Cc3cccc(C(=O)O)c3OB2O)c2ccc(OCCF)cc2)C(=O)C1=O (stereo partly drawn) [Example 76, (3R)-3-(2-(4-ethyl-2,3-dioxopiperazine-1-carboxamido)-2-(4-(2-fluoroethoxy)phenyl)acetamido)-2-hydroxy-3,4-dihydro-2H-benzo[e][1,2]oxaborinine-8-carboxylic acid]	< 10 µM	–	–	128 to 256 mg/L (≈ 224 to 449 µM)	–	–	–	–	–	30 to 500 µM	–
CCN1CCN(C(=O)NC(C(=O)N[C@H]2Cc3cccc(C(=O)O)c3OB2O)c2cc(O)c(O)cc2Cl)C(=O)C1=O (stereo partly drawn) [Example 85, (3R)-3-(2-(2-chloro-4,5-dihydroxyphenyl)-2-(4-ethyl-2,3-dioxopiperazine-1-carboxamido)acetamido)-2-hydroxy-3,4-dihydro-2H-benzo[e][1,2]oxaborinine-8-carboxylic acid]	< 10 µM	–	8 to 16 µg/mL	32 to 64 mg/L (≈ 55.7 to 111 µM)	–	8 to 16 µg/mL	8 to 16 µg/mL	0.5 to 1 µg/mL	32 to 64 µg/mL	–	EC50 (E. coli PBP1b): < 10 µM
CCN1CCN(C(=O)N[C@H](CCN)C(=O)N[C@H]2Cc3cccc(C(=O)O)c3OB2O)C(=O)C1=O [Example 17, (R)-3-((R)-4-amino-2-(4-ethyl-2,3-dioxopiperazine-1-carboxamido)butanamido)-2-hydroxy-3,4-dihydro-2H-benzo[e][1,2]oxaborinine-8-carboxylic acid, trifluoroacetic acid salt]	< 10 µM	> 512 mg/L	–	128 to 256 mg/L	> 500 µM	–	–	–	–	–	–
O=C(O)c1cccc2c1OB(O)[C@@H](NC(=O)C(NC(=O)N1CCN(CCF)C(=O)C1=O)c1ccc(O)cn1)C2 (stereo partly drawn) [Example 99, (3R)-3-(2-(4-(2-fluoroethyl)-2,3-dioxopiperazine-1-carboxamido)-2-(5-hydroxypyridin-2-yl)acetamido)-2-hydroxy-3,4-dihydro-2H-benzo[e][1,2]oxaborinine-8-carboxylic acid]	10 to 100 µM	–	32 to 64 µg/mL	32 to 64 mg/L (≈ 58.9 to 118 µM)	< 30 µM	32 to 64 µg/mL	2 to 4 µg/mL	< 0.25 µg/mL	8 to 16 µg/mL	–	–
CCN1CCN(C(=O)NC(C(=O)N[C@H]2Cc3cccc(C(=O)O)c3OB2O)c2ccc(O)c(O)c2)C(=O)C1=O (stereo partly drawn) [Example 22, (3R)-3-(2-(3,4-dihydroxyphenyl)-2-(4-ethyl-2,3-dioxopiperazine-1-carboxamido)acetamido)-2-hydroxy-3,4-dihydro-2H-benzo[e][1,2]oxaborinine-8-carboxylic acid]	< 10 µM	8 to 16 mg/L (≈ 14.8 to 29.6 µM)	8 to 16 µg/mL	8 to 16 mg/L (≈ 14.8 to 29.6 µM)	< 30 µM	8 to 16 µg/mL	2 to 4 µg/mL	0.5 to 1 µg/mL	8 to 16 µg/mL	–	EC50 (E. coli PBP1b): < 10 µM
Nc1ncc(C(NC(=O)N2CCN(CCF)C(=O)C2=O)C(=O)N[C@H]2Cc3cccc(C(=O)O)c3OB2O)s1 (stereo partly drawn) [Example 100, (3R)-3-(2-(2-aminothiazol-5-yl)-2-(4-(2-fluoroethyl)-2,3-dioxopiperazine-1-carboxamido)acetamido)-2-hydroxy-3,4-dihydro-2H-benzo[e][1,2]oxaborinine-8-carboxylic acid]	10 to 100 µM	–	32 to 64 µg/mL	8 to 16 mg/L (≈ 14.6 to 29.2 µM)	–	32 to 64 µg/mL	2 to 4 µg/mL	0.5 to 1 µg/mL	8 to 16 µg/mL	30 to 500 µM	MIC (K. pneumoniae 848844): 32 to 64 µg/mL; MIC (E. coli D22): 8 to 16 µg/mL; MIC (K. pneumoniae SI-117): 8 to 16 µg/mL
CCN1CCN(C(=O)NC(C(=O)N[C@H]2Cc3cccc(C(=O)O)c3OB2O)c2ccc(O)c(OCCN)c2)C(=O)C1=O (stereo partly drawn) [Example 49, (3R)-3-(2-(3-(2-aminoethoxy)-4-hydroxyphenyl)-2-(4-ethyl-2,3-dioxopiperazine-1-carboxamido)acetamido)-2-hydroxy-3,4-dihydro-2H-benzo[e][1,2]oxaborinine-8-carboxylic acid]	< 10 µM	32 to 64 mg/L (≈ 54.9 to 110 µM)	–	–	–	–	–	–	–	30 to 500 µM	–
CCN1CCN(C(=O)NC(C(=O)N[C@H]2Cc3cccc(C(=O)O)c3OB2O)c2ccc(OC)cc2)C(=O)C1=O (stereo partly drawn) [Example 26, (3R)-3-(2-(4-ethyl-2,3-dioxopiperazine-1-carboxamido)-2-(4-methoxyphenyl)acetamido)-2-hydroxy-3,4-dihydro-2H-benzo[e][1,2]oxaborinine-8-carboxylic acid]	< 10 µM	128 to 256 mg/L (≈ 238 to 476 µM)	–	128 to 256 mg/L (≈ 238 to 476 µM)	–	–	–	–	–	30 to 500 µM	–
